In ChEMBL document CHEMBL1221276, “Structure-based design, synthesis, and biological evaluation of lipophilic-tailed monocationic inhibitors of neuronal nitric oxide synthase” (Bioorg Med Chem, 2010):

How the values were obtained:
Nitric oxide synthase 1 = Nitric oxide synthase 1 (Rattus norvegicus, UniProt P29476); assay: Inhibition of rat recombinant nNOS expressed in Escherichia coli by hemoglobin capture assay
Nitric oxide synthase 3 = target: T1, Nitric oxide synthase 3 (Bos taurus, UniProt P29473); assay: Inhibition of bovine recombinant eNOS expressed in Escherichia coli by hemoglobin capture assay
T1 sequence (P29473 whole entry): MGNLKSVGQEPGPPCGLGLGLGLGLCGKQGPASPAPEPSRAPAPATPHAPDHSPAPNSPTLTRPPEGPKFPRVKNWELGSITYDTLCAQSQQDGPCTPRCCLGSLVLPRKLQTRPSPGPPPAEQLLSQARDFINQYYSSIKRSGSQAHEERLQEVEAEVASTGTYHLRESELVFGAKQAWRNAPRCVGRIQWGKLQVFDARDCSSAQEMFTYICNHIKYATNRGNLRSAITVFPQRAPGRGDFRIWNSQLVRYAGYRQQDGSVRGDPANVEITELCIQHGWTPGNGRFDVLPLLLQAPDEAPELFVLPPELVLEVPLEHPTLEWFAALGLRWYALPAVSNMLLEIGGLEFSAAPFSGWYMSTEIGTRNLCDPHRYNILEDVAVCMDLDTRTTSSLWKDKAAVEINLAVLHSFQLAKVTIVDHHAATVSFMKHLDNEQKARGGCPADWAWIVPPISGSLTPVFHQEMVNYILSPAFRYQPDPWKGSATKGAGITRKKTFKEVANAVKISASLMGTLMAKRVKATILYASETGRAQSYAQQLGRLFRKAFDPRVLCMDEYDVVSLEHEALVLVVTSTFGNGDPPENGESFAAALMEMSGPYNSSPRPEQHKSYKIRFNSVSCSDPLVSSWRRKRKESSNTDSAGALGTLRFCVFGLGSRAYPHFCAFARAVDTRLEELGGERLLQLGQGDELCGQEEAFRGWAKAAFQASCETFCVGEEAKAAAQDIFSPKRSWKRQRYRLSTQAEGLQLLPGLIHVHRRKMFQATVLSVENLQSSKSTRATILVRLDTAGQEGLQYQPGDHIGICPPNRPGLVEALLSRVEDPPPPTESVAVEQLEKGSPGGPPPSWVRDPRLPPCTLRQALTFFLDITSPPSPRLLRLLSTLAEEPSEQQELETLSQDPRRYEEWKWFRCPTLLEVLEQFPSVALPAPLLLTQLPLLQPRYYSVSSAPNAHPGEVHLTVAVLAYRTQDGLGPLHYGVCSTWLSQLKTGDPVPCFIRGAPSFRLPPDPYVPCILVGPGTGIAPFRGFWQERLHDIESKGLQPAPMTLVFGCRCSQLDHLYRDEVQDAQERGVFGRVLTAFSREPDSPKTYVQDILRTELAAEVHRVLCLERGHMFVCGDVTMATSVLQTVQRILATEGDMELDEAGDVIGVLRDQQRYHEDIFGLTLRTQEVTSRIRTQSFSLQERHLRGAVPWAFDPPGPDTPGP

[1] = target: T2, Nitric oxide synthase, inducible (Mus musculus, UniProt P29477); assay: Inhibition of mouse recombinant iNOS expressed in Escherichia coli by hemoglobin capture assay
T2 sequence (P29477 whole entry): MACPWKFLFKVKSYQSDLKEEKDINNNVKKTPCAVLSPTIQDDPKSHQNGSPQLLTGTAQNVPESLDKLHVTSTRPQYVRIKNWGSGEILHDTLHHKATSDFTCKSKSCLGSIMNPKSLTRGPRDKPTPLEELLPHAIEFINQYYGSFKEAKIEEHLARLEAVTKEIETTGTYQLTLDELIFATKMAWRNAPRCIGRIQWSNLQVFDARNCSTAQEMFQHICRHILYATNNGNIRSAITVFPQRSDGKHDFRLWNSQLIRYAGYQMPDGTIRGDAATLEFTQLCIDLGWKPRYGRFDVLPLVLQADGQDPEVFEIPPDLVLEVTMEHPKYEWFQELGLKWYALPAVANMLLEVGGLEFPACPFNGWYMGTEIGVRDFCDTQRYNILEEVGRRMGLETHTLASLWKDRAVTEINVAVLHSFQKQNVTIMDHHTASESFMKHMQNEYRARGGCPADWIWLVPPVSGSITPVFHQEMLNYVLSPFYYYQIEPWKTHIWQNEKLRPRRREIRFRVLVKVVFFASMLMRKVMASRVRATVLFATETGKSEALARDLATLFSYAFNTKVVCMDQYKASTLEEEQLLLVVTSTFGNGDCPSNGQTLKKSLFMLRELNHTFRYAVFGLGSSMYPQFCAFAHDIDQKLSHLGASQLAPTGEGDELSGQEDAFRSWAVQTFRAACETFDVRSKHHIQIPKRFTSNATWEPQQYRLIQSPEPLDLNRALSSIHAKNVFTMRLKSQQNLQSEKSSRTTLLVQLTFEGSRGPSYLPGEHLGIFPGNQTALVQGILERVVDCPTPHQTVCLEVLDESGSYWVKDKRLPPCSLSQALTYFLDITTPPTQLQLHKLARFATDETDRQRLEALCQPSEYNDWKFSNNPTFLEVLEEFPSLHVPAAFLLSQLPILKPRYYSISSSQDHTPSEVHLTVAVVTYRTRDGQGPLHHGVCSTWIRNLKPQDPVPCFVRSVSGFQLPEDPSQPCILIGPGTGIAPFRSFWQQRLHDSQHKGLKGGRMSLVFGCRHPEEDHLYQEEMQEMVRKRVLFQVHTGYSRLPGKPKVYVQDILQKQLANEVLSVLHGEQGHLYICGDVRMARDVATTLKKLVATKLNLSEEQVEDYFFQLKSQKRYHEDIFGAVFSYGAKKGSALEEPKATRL

Chain of Nitric oxide synthase 1 (P29476 whole entry): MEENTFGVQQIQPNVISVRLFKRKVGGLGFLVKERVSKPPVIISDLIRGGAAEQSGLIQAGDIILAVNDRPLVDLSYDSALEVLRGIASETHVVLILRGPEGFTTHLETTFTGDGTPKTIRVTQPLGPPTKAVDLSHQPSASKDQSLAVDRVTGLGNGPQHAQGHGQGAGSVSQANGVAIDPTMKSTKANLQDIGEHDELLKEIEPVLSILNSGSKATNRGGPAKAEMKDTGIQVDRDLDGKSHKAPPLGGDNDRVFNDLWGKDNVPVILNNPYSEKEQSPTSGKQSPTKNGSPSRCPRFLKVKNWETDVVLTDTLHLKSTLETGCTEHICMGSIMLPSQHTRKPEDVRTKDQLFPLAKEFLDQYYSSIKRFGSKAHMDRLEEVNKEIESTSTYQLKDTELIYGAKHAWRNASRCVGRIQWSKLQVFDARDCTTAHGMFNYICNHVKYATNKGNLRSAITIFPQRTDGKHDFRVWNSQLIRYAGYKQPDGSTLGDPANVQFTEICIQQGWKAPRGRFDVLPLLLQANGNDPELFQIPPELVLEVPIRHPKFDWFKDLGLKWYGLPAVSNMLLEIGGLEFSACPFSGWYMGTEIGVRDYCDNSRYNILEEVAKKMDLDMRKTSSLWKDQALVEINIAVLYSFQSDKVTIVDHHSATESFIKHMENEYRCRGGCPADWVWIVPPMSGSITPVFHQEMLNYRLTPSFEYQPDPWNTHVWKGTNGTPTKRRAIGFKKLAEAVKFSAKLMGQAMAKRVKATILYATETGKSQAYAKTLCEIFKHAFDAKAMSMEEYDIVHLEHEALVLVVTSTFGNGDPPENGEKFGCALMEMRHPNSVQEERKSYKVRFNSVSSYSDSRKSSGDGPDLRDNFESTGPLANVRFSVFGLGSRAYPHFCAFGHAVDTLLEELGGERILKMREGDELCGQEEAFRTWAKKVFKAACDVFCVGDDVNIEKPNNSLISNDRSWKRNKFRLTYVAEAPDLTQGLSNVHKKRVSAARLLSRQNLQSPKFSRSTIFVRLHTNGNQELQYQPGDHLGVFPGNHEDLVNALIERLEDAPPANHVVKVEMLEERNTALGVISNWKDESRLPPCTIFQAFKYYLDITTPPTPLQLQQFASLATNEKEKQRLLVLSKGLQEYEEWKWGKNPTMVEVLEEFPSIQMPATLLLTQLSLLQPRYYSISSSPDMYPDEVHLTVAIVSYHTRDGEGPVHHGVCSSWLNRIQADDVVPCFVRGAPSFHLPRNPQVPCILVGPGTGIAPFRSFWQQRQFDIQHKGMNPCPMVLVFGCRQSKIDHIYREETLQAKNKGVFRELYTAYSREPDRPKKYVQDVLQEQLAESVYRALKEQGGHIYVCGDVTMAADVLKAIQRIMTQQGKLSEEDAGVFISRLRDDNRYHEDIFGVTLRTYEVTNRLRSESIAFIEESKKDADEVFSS

SMILES	Ki (Nitric oxide synthase 1)	Ki (Nitric oxide synthase 3)	Ki [1]
Nc1cccc(C[C@@H]2CNC[C@@H]2Oc2cccc(Oc3ccccc3)c2)n1 (racemic)	3 µM		
Cc1cc(N)nc(C[C@@H]2CNC[C@@H]2OCc2ccc(-c3cccc(Cl)c3)cc2)c1 (racemic)	1.2 µM	26 µM	55.6 µM
Cc1cc(N)nc(C[C@@H]2CNC[C@@H]2OCc2ccc(-c3ccc(F)c(C)c3)cc2)c1 (racemic)	0.62 µM		22.1 µM
Cc1cc(N)nc(C[C@@H]2CNC[C@@H]2OCc2ccc(-c3ccc(F)c(Cl)c3)cc2)c1 (racemic)	0.76 µM		

Results, then the compound that gave them:

Ki (Nitric oxide synthase 1)	Ki (Nitric oxide synthase 3)	Ki [1]	SMILES
0.75 µM	13.3 µM	39.5 µM	Cc1cc(N)nc(C[C@@H]2CNC[C@@H]2OCc2ccc(-c3cccc(F)c3)cc2)c1 (racemic)
	13.6 µM	37.3 µM	Cc1cc(N)nc(C[C@@H]2CNC[C@@H]2OCc2ccc(-c3cccc(C(F)(F)F)c3)cc2)c1 (racemic)
